This note sets out measurements from article PMC5148695 (Neuropharmacology, 2016).

For this assay, the target named is α4β3δ GABAA receptor (Homo sapiens, UniProt P28472+P48169). Description: whole-cell patch clamp, potentiation of GABA EC20 current. Format: cell-based.

One may read the EC50 as the concentration at which the effect is half-maximal.

α4β3δ GABAA receptor, sequence (P48169 36-554): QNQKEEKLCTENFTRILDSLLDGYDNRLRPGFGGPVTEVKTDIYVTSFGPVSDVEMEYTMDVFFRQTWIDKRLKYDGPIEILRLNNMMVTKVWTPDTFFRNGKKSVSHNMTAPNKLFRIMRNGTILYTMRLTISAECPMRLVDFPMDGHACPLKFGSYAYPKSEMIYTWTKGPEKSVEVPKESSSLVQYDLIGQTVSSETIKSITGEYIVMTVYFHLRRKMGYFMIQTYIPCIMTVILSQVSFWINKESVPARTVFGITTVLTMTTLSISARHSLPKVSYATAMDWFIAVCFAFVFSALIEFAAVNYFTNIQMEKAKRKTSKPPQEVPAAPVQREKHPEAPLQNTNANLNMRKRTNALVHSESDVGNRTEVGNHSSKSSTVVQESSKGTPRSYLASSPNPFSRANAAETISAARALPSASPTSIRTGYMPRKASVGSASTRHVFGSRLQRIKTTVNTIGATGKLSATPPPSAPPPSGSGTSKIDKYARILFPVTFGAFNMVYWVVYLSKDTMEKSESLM
α4β3δ GABAA receptor, sequence (P28472 26-473): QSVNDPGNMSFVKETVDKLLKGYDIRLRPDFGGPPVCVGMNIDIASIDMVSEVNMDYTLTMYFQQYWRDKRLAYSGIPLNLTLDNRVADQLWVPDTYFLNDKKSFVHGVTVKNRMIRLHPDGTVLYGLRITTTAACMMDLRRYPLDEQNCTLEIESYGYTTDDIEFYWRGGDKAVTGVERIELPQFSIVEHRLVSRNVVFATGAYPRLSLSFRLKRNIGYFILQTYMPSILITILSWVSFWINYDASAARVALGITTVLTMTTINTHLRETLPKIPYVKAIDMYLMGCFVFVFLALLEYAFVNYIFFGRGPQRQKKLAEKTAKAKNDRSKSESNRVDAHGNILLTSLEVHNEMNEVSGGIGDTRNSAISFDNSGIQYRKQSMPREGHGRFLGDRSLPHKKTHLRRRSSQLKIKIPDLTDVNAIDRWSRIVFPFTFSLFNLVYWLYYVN
α4β3δ GABAA receptor, sequence (O14764 25-452 partner): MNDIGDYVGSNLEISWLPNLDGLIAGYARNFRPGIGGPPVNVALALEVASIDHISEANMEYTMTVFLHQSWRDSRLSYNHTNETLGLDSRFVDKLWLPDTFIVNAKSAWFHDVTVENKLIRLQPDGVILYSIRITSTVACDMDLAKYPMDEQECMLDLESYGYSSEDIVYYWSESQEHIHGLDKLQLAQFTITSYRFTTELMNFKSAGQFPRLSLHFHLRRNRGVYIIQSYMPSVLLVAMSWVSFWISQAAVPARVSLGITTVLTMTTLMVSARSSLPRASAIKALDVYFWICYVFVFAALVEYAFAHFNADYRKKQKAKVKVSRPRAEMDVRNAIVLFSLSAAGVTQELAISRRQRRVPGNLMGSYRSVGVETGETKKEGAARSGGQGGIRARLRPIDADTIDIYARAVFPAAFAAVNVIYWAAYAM

Regarding `CC(=O)[C@H]1CC[C@H]2[C@@H]3CC[C@H]4C[C@H](O)CC[C@]4(C)[C@H]3CC[C@]12C` [ALLO], the concentration for a half-maximal effect (EC50) is 57 nM.
